From paper PMC9732439, “Biochemical and in silico inhibition of bovine and human carbonic anhydrase-II by 1H-1,2,3-triazole analogs” (Frontiers in Chemistry, 2022)

What was measured:
[1] = biological target: T1, bCA-II (Bos taurus, UniProt P00921); experiment: In vitro carbonic anhydrase inhibition assay (p-NPA, spectrophotometric), bCA-II; format: biochemical, bovine; details: for IC50 / bCA-II IC50 ± S.E.M.: bovine CA-II, substrate p-NPA, 15 min at 25°C, triplicate; for IC50: read-out: bCA-II IC50 ± S.E.M.
Procedure: Total assay volume comprises 140 µl of HEPES-Tris buffer, 20 µl of bCA-II solution (0.1 mg/ml HEPES-Tris buffer), 20 µl of the test compound (prepared in DMSO), and 20 µl p-NPA (0.7 mM, methanol). First, the test compound and enzyme were incubated for 15 min at 25°C; after incubation, in quick sequence, substrate was added to each experiment in 96-well plates, which were placed in the ^xMARK microplate spectrophotometer (Bio-Rad, United States), and the absorbance was set to 400 nm with 1 min interval time. The activity of the controlled compound was taken as 100%.

[2] = biological target: T2, hCA-II (Homo sapiens, UniProt P00918); experiment: In vitro carbonic anhydrase inhibition assay (p-NPA, spectrophotometric), hCA-II; format: biochemical; details: for IC50 / hCA-II IC50 ± S.E.M.: human CA-II, substrate p-NPA, triplicate; for IC50: read-out: hCA-II IC50 ± S.E.M.; for Selectivity for hCA-II: hCA-II versus bCA-II
[3] = biological target: T1, bCA-II; experiment: Kinetics study against bCA-II; format: biochemical, bovine; details: for Kmapp: Michaelis–Menten constant in the presence of inhibitor; for Vmaxapp: maximum velocity in the presence of inhibitor; for Ki: read-out: Ki ± SEM
Procedure: (§1) Soon after the incubation, various concentrations of substrate were added to the reaction medium (01–0.8 mM). The enzyme activity was measured under steady-state conditions by observing changes in absorbance for 30 min at 400 nm on the microtiter plate reader (Bio-Rad X-Mark^Tm molecular spectrometer, United States). The results were analyzed and processed by Grafit 7 software (Erithacus Software Limited, United Kingdom). Different kinetic parameters of enzymes (e.g., Vmax, Km, Vmaxapp, and Kmapp) and values of correlation coefficients, intercepts, slopes, and their standard error mean were calculated by the linear regression graph by Grafit 7. Linear regression analysis was used to calculate the “best fit” line or curve through a dataset by minimizing the deviation of the data from the curve.

[4] = biological target: T2, hCA-II; experiment: Kinetics study against hCA-II; format: biochemical; details: for Kmapp: Michaelis–Menten constant in the presence of inhibitor; for Vmaxapp: maximum velocity in the presence of inhibitor; for Ki: read-out: Ki ± SEM
Procedure: as §1

T1 sequence (P00921 whole entry): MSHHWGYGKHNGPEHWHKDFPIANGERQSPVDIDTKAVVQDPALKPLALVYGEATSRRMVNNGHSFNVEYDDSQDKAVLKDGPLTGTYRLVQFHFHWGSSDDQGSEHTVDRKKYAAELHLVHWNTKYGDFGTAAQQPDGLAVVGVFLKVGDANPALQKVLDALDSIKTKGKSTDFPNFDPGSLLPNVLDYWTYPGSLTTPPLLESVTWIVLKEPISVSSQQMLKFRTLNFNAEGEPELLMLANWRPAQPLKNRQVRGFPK

IC50 [1]	IC50 [2]	hCA-II IC50 ± S.E.M. [2]	bCA-II IC50 ± S.E.M. [1]	Structure (SMILES)	other results
14.1 ± 0.2 µM	13.6 ± 1 µM			COc1cc(-c2c(F)cccc2F)ccc1O[C@H](C)Cn1cc(-c2ccc(F)cc2)nn1 [Compound 9o]	Type of inhibition [3]: competitive inhibition; Kmapp [3]: 4.9 mM; Vmaxapp [3]: 24.6 (µmol/min)^−1; Ki [3]: 11.3 ± 0.17 µM; Type of inhibition [4]: competitive inhibition; Kmapp [4]: 4.2 mM; Vmaxapp [4]: 25.3 (µmol/min)^−1; Ki [4]: 6.5 ± 0.19 µM
12.9 ± 1 µM		Inactive		COc1ccc(-c2ccc(O[C@H](C)Cn3cc(-c4ccc(F)cc4)nn3)c(OC)c2)cc1 [Compound 9h]	
	18.5 ± 0.4 µM		Inactive	COc1cc(-c2ccc(Cl)cc2)ccc1O[C@H](C)Cn1cc(-c2ccc(F)cc2)nn1 [Compound 9j]	
		Inactive	Inactive	COc1cc(-c2ccc(F)cc2)ccc1O[C@H](C)Cn1cc(-c2ccc(F)cc2)nn1 [Compound 9l]	
	19.3 ± 0.2 µM		Inactive	COc1cc(-c2ccc(F)c(F)c2F)ccc1O[C@H](C)Cn1cc(-c2ccc(F)cc2)nn1 [Compound 9p]	Selectivity for hCA-II [2]: selective inhibitors of the hCA-II
41 ± 0.4 µM	27.4 ± 0.9 µM			COc1cc(-c2cc(C(F)(F)F)cc(C(F)(F)F)c2)ccc1O[C@H](C)Cn1cc(-c2ccc(F)cc2)nn1 [Compound 9m]	
16.4 ± 0.4 µM		Inactive		COc1cc(-c2ccc(C)cc2)ccc1O[C@H](C)Cn1cc(-c2ccc(F)cc2)nn1 [Compound 9g]	
	21.3 ± 0.8 µM		Inactive	COc1cc(-c2ccc(C#N)cc2)ccc1O[C@H](C)Cn1cc(-c2ccc(F)cc2)nn1 [Compound 9k]	Selectivity for hCA-II [2]: selective inhibitors of the hCA-II
		Inactive	Inactive	COc1cc(-c2cc3ccccc3s2)ccc1O[C@H](C)Cn1cc(-c2ccc(F)cc2)nn1 [Compound 9s]	
22.4 ± 0.4 µM	23 ± 0.3 µM			COc1cc(-c2ccc(C=O)cc2)ccc1O[C@H](C)Cn1cc(-c2ccc(F)cc2)nn1 [Compound 9n]	
		Inactive	Inactive	COc1cc(-c2ccc3ccccc3c2)ccc1O[C@H](C)Cn1cc(-c2ccc(F)cc2)nn1 [Compound 9q]	
29 ± 1 µM		Inactive		COc1cc(-c2ccc(C(C)=O)cc2)ccc1O[C@H](C)Cn1cc(-c2ccc(F)cc2)nn1 [Compound 9r]	Selectivity for bCA-II ([1]; bCA-II versus hCA-II): selective inhibitors of bCA-II
11.1 ± 0.2 µM	10.9 ± 1 µM			COc1cc(-c2ccc([N+](=O)[O-])cc2)ccc1O[C@H](C)Cn1cc(-c2ccc(F)cc2)nn1 [Compound 9i]	Type of inhibition [3]: competitive inhibition; Kmapp [3]: 5.6 mM; Vmaxapp [3]: 23.2 (µmol/min)^−1; Ki [3]: 9.4 ± 0.3 µM; Type of inhibition [4]: competitive inhibition; Kmapp [4]: 3.9 mM; Vmaxapp [4]: 26.1 (µmol/min)^−1; Ki [4]: 8.1 ± 0.04 µM

More lines, now with the values behind:

Structure (SMILES)	IC50 [1]	IC50 [2]	hCA-II IC50 ± S.E.M. [2]	bCA-II IC50 ± S.E.M. [1]	other results
COc1cc(Br)ccc1O[C@H](C)Cn1cc(-c2ccccc2)nn1 [Compound 7a]	21.4 ± 0.1 µM	35.3 ± 0.6 µM			
COc1cc(Br)ccc1O[C@H](C)Cn1cc(-c2ccc(C(F)(F)F)cc2)nn1 [Compound 7b]	20.6 ± 0.3 µM	45.1 ± 0.5 µM			
COc1cc(-c2ccccc2)ccc1O[C@H](C)Cn1cc(-c2ccc(F)cc2)nn1 [Compound 9f]	88.4 ± 0.3 µM		Inactive		
COc1cc(-c2ccccc2C(F)(F)F)ccc1O[C@H](C)Cn1cc(-c2ccc(C(F)(F)F)cc2)nn1 [Compound 9c]		12.5 ± 0.6 µM		Inactive	Selectivity for hCA-II [2]: selective inhibitors of the hCA-II
COc1ccc(-c2ccc(O[C@H](C)Cn3cc(-c4ccc(C(F)(F)F)cc4)nn3)c(OC)c2)cc1 [Compound 9b]	39.1 ± 0.3 µM	22.4 ± 0.4 µM			
COc1cc(-c2ccc(F)cc2)ccc1O[C@H](C)Cn1cc(-c2ccc(C(F)(F)F)cc2)nn1 [Compound 9d]	28.8 ± 0.4 µM		Inactive		
COC(=O)c1cn(C[C@@H](C)Oc2ccc(Br)cc2OC)nn1 [Compound 7d]	12.3 ± 0.4 µM	25.1 ± 0.4 µM			
COc1cc(Br)ccc1O[C@H](C)Cn1cc(-c2ccc(F)cc2)nn1 [Compound 7c]	20.4 ± 0.3 µM	22.8 ± 0.2 µM			
COc1cc(-c2ccc(C)cc2)ccc1O[C@H](C)Cn1cc(-c2ccc(C(F)(F)F)cc2)nn1 [Compound 9a]	25.7 ± 0.2 µM	21 ± 1 µM			
COc1cc(-c2ccc([N+](=O)[O-])cc2)ccc1O[C@H](C)Cn1cc(-c2ccc(C(F)(F)F)cc2)nn1 [Compound 9e]	17.8 ± 0.8 µM		Inactive		
